According to US20200368247A1, “CENICRIVIROC FOR THE TREATMENT OF FIBROSIS” (Tobira Therapeutics, Inc., priority 2014, published 2020):

How the values were obtained:
[1] = tested on: HIV-1; test: Study 201 drug resistance testing; assay type: in vivo, human; details: Baseline, Day 7, Day 40; subjects with evaluable samples
Experimental: In Study 201, drug resistance testing was performed at Baseline, Day 7, and Day 40 (or at the “Early Termination” visit, if applicable).

[2] = tested on: male Sprague-Dawley rats with TAA-induced fibrosis; test: Rat model of thioacetamide-induced liver fibrosis and cirrhosis; assay type: in vivo; details: 8 weeks
Experimental: Fibrosis was induced in male Sprague-Dawley rats by intraperitoneal administration of TAA 150 mg/kg 3 times/week for 8 weeks. […] Biochemical, gene expression and histologic evaluations of the liver were conducted.

[3] = Phase 1 studies in healthy volunteer subjects; assay type: in vivo, human
Source text: The frequency and magnitude of transaminase elevations observed across these studies was consistent with the pattern described for Phase 1 studies in scientific literature. […] In both studies and at all doses CVC presented a favorable adverse event profile. […] No clinically relevant changes in ECG parameters or changes for any vital sign parameters were observed during the 48-week treatment period. No apparent dose or exposure relationship for adverse events, laboratory abnormalities (including CPK, ALT, AST and bilirubin elevations) or dose-limiting toxicities were observed.

Structure (SMILES): CCCCOCCOc1ccc(-c2ccc3c(c2)/C=C(/C(=O)Nc2ccc([S@@+]([O-])Cc4cncn4CCC)cc2)CCCN3CC(C)C)cc1 [CVC, (S)-8-[4-(2-Butoxyethoxy)phenyl]-1-isobutyl-N-(4-{[(1-propyl-1H-imidazol-5-yl)methyl]sulfinyl}phenyl)-1,2,3,4-tetrahydro-1-benzazocine-5-carboxamide]
- drug susceptibility of virus [1]: fully susceptible
- reduction of fibrosis by collagen morphometry ([2]; Group 1a, 30 mg/kg/day concurrently with TAA): 49%
- reduction of fibrosis by collagen morphometry ([2]; Group 1b, 100 mg/kg/day concurrently with TAA): 38%
- generally well tolerated multiple daily doses ([3]; Phase 1, 10 days): up to 200 mg
- generally well tolerated single doses ([3]; Phase 1, healthy volunteers): up to 800 mg
